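Assay format: 96-well plates, 48-hour exposure. The concentration for 50% growth inhibition is given as GI50.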 The source made the active and inactive calls. Rule as the data show it: active = GI50 up to about 1.1 µM and inactive = higher.
Key:
Assay in all cases: NCI anticancer screen, dose series, 48 h
[1] = tested on: HOP-62
[2] = tested on: IGROV-1
[3] = tested on: UACC-62
[4] = tested on: KM12
[5] = tested on: EKVX
[6] = tested on: SF-539
[7] = tested on: OVCAR-3
[8] = tested on: A549
[9] = tested on: RXF 393
[10] = tested on: Malme-3M
[11] = tested on: CAKI-1
[12] = tested on: SNB-19
[13] = tested on: SK-OV-3
[14] = tested on: K562
[15] = tested on: SR
[16] = tested on: SK-MEL-5
[17] = tested on: RPMI-8226
[18] = tested on: CCRF-CEM
[19] = tested on: NCI-H23

SMILES | GI50 [1] | GI50 [2] | GI50 [3] | GI50 [4] | GI50 [5] | GI50 [6] | GI50 [7] | GI50 [8] | GI50 [9] | GI50 [10] | GI50 [11] | GI50 [12] | GI50 [13] | GI50 [14] | GI50 [15] | GI50 [16] | GI50 [17] | GI50 [18] | GI50 [19]
CCOC(=O)C1=C(C)N(NC(=O)c2ccccc2)C2(O)CCCC12C(=O)OCC (centres undefined) | > 100 µM (inactive) | > 100 µM (inactive) | > 100 µM (inactive) | > 100 µM (inactive) | > 100 µM (inactive) | > 100 µM (inactive) | > 100 µM (inactive) | > 100 µM (inactive) | > 100 µM (inactive) | > 100 µM (inactive) | > 100 µM (inactive) | > 100 µM (inactive) | > 100 µM (inactive) | > 100 µM (inactive) | 73.3 µM (inactive) | > 100 µM (inactive) | > 100 µM (inactive) | – | –
BrC1=CCC23CC=C(Br)[C@H]4CC2(COC3)C[C@@H]1O4 (some centres undefined) | > 100 µM (inactive) | > 100 µM (inactive) | 46.1 µM (inactive) | 54.2 µM (inactive) | > 100 µM (inactive) | 84.9 µM (inactive) | 63.5 µM (inactive) | > 100 µM (inactive) | 32 µM (inactive) | > 100 µM (inactive) | – | 37.9 µM (inactive) | – | 27.5 µM (inactive) | 23.4 µM (inactive) | > 100 µM (inactive) | 39.6 µM (inactive) | 24.4 µM (inactive) | 37.2 µM (inactive)
C/C(CC(=O)Nc1ccc(C)c(C)c1)=N\N(c1ccccc1)c1ccccc1 | > 100 µM (inactive) | 64.4 µM (inactive) | 21.6 µM (inactive) | > 100 µM (inactive) | > 100 µM (inactive) | > 100 µM (inactive) | > 100 µM (inactive) | > 100 µM (inactive) | 63.2 µM (inactive) | > 100 µM (inactive) | 80.7 µM (inactive) | > 100 µM (inactive) | > 100 µM (inactive) | 26.2 µM (inactive) | 22.4 µM (inactive) | 62.7 µM (inactive) | 47.1 µM (inactive) | 26.4 µM (inactive) | > 100 µM (inactive)
COC12CC(O)=C(C(C)=O)C(=O)C1(C)c1c(OC(C)=O)c(C)c(O)c(C(C)=O)c1O2 (centres undefined) | 22.8 µM (inactive) | 7.89 µM (inactive) | 4.98 µM (inactive) | 12 µM (inactive) | 31 µM (inactive) | 21.6 µM (inactive) | 14.1 µM (inactive) | 9.44 µM (inactive) | 14.7 µM (inactive) | 17.9 µM (inactive) | 15.7 µM (inactive) | 4.98 µM (inactive) | – | 16.9 µM (inactive) | 18.5 µM (inactive) | – | 7.71 µM (inactive) | 8.41 µM (inactive) | 4.86 µM (inactive)
CCOC(=O)NN1C(=O)C(=P(c2ccccc2)(c2ccccc2)c2ccccc2)C(C(=O)OC)=C1C | > 100 µM (inactive) | > 100 µM (inactive) | > 100 µM (inactive) | > 100 µM (inactive) | > 100 µM (inactive) | > 100 µM (inactive) | > 100 µM (inactive) | > 100 µM (inactive) | > 100 µM (inactive) | > 100 µM (inactive) | > 100 µM (inactive) | > 100 µM (inactive) | > 100 µM (inactive) | > 100 µM (inactive) | > 100 µM (inactive) | > 100 µM (inactive) | > 100 µM (inactive) | > 100 µM (inactive) | > 100 µM (inactive)
COc1ccc(/C=N/C23CC4CC(CC(C4)C2)C3)cc1 | > 100 µM (inactive) | > 100 µM (inactive) | > 100 µM (inactive) | > 100 µM (inactive) | > 100 µM (inactive) | > 100 µM (inactive) | > 100 µM (inactive) | > 100 µM (inactive) | > 100 µM (inactive) | > 100 µM (inactive) | > 100 µM (inactive) | > 100 µM (inactive) | > 100 µM (inactive) | > 100 µM (inactive) | > 100 µM (inactive) | > 100 µM (inactive) | > 100 µM (inactive) | > 100 µM (inactive) | > 100 µM (inactive)
CCCCCCCCCCOC(=O)c1cc[n+](C)cc1 | 16.8 µM (inactive) | 16.6 µM (inactive) | 16.8 µM (inactive) | 16.9 µM (inactive) | 16.7 µM (inactive) | 16.3 µM (inactive) | 15.6 µM (inactive) | 17 µM (inactive) | 19.7 µM (inactive) | 17.1 µM (inactive) | 16.6 µM (inactive) | 16.2 µM (inactive) | 16 µM (inactive) | 16.3 µM (inactive) | 16.3 µM (inactive) | 19.1 µM (inactive) | 16.3 µM (inactive) | 17.5 µM (inactive) | 19.9 µM (inactive)
CCCCN(CCCC)C(=O)C(=O)CC(=O)/C=C/c1ccccc1 | > 100 µM (inactive) | > 100 µM (inactive) | > 100 µM (inactive) | > 100 µM (inactive) | > 100 µM (inactive) | > 100 µM (inactive) | > 100 µM (inactive) | > 100 µM (inactive) | > 100 µM (inactive) | > 100 µM (inactive) | > 100 µM (inactive) | > 100 µM (inactive) | > 100 µM (inactive) | > 100 µM (inactive) | > 100 µM (inactive) | > 100 µM (inactive) | > 100 µM (inactive) | > 100 µM (inactive) | > 100 µM (inactive)
O=c1c2cccnc2ncn1CCN1CCCC1 | > 100 µM (inactive) | > 100 µM (inactive) | > 100 µM (inactive) | > 100 µM (inactive) | > 100 µM (inactive) | > 100 µM (inactive) | > 100 µM (inactive) | > 100 µM (inactive) | > 100 µM (inactive) | > 100 µM (inactive) | > 100 µM (inactive) | > 100 µM (inactive) | > 100 µM (inactive) | > 100 µM (inactive) | > 100 µM (inactive) | > 100 µM (inactive) | – | > 100 µM (inactive) | > 100 µM (inactive)
[N-]=[N+]=NC(c1cn(C2CC(O)C(CO)O2)c(=O)[nH]c1=O)C(Br)I (centres undefined) | > 100 µM (inactive) | > 100 µM (inactive) | > 100 µM (inactive) | > 100 µM (inactive) | > 100 µM (inactive) | > 100 µM (inactive) | > 100 µM (inactive) | > 100 µM (inactive) | > 100 µM (inactive) | > 100 µM (inactive) | > 100 µM (inactive) | > 100 µM (inactive) | > 100 µM (inactive) | > 100 µM (inactive) | > 100 µM (inactive) | > 100 µM (inactive) | > 100 µM (inactive) | > 100 µM (inactive) | > 100 µM (inactive)
C[C@]12CCC3c4ccc(OC(=O)c5ccccc5)cc4CC[C@H]3C1CC[C@@H]2OC(=O)C12OC1CCC2=O (some centres undefined) | 6.21 µM (inactive) | 4.63 µM (inactive) | 15.6 µM (inactive) | 6.93 µM (inactive) | 6.61 µM (inactive) | 2.34 µM (inactive) | 3.13 µM (inactive) | 5.64 µM (inactive) | 2.41 µM (inactive) | 5.85 µM (inactive) | – | 20.5 µM (inactive) | 15.8 µM (inactive) | 2.07 µM (inactive) | 3.31 µM (inactive) | 4.69 µM (inactive) | 4.23 µM (inactive) | 0.959 µM (active) | 4.73 µM (inactive)
CCCCCCCCCCCc1noc2c1C(=O)C(O)CC2 (centres undefined) | 45.8 µM (inactive) | 50 µM (inactive) | 16.4 µM (inactive) | 22.9 µM (inactive) | 33.5 µM (inactive) | 22.2 µM (inactive) | 17.5 µM (inactive) | 22 µM (inactive) | 14.2 µM (inactive) | – | 32.8 µM (inactive) | 22.1 µM (inactive) | 25.7 µM (inactive) | 17.2 µM (inactive) | 27.2 µM (inactive) | 14.6 µM (inactive) | 25 µM (inactive) | 25.1 µM (inactive) | 16.3 µM (inactive)
Cc1c[n+]2c3ccccc3c3ccccc3c2s1.[O-][Cl+3]([O-])([O-])[O-] | 6.52 µM (inactive) | 29.4 µM (inactive) | 14.1 µM (inactive) | 1.07 µM (active) | 4.89 µM (inactive) | 4.59 µM (inactive) | 0.787 µM (active) | 4.01 µM (inactive) | 0.043 µM (active) | 2.49 µM (inactive) | 3.2 µM (inactive) | 3.36 µM (inactive) | 10.7 µM (inactive) | 4.29 µM (inactive) | 3.33 µM (inactive) | 5.35 µM (inactive) | 8.15 µM (inactive) | 4.1 µM (inactive) | 0.422 µM (active)
CC(C)C.C[N+](C)(C)C.OC(c1ccccc1)(C(F)(F)F)C(F)(F)F.OC(c1ccccc1)(C(F)(F)F)C(F)(F)F.[SiH3-] | – | – | – | 3.92 µM (inactive) | 3.73 µM (inactive) | 2.51 µM (inactive) | 0.678 µM (active) | 4.79 µM (inactive) | 3.18 µM (inactive) | 11.1 µM (inactive) | 11.3 µM (inactive) | 3.26 µM (inactive) | – | 3.89 µM (inactive) | 2.09 µM (inactive) | 10.4 µM (inactive) | 4.43 µM (inactive) | – | 3.25 µM (inactive)
COc1ccc2c(=O)c(C)c(-c3ccccc3)oc2c1CN(C)C [DIMEFLINE] | > 100 µM (inactive) | > 100 µM (inactive) | > 100 µM (inactive) | > 100 µM (inactive) | – | > 100 µM (inactive) | – | > 100 µM (inactive) | > 100 µM (inactive) | > 100 µM (inactive) | > 100 µM (inactive) | > 100 µM (inactive) | > 100 µM (inactive) | > 100 µM (inactive) | > 100 µM (inactive) | > 100 µM (inactive) | > 100 µM (inactive) | > 100 µM (inactive) | > 100 µM (inactive)
